Data reported in patent US7415306B2, “Transdermal delivery system for anti-emetic medication” (TransPharma Medical Ltd., priority 2002, dated 2008).
Where a name gives a salt, the structure may show the parent alone.

Experiments:
[1] = Clinical patch-size study with granisetron patches and ViaDerm (plasma levels, erythema/edema)
From the text: The purpose of the first phase study was to determine patch size per drug dose. The target population for the study was healthy male and female volunteers who signed informed consent and fulfilled the following inclusion criteria: • 1. Are capable of understanding and signing an informed consent • 2. Are between the ages of 18 and 60 years • 3. Are medically stable • 4. Have fair skin color that enable to observe erythema and/or edema. • 5. Have two hands with no obvious marks, bruises, cuts, and abrasions on the back of the hand. • 6. Hemoglobin more than 12 gm % in females and more than 14 gm % in males.
Granisetron HCl patches were applied on the skin of the upper arm and fore arm of healthy adult volunteers. […] Irritation was examined by monitoring edema and erythema as described in Example 6. […]
ViaDerm performance was assessed by a study conducted with twenty healthy, adult volunteers, 10 males and 10 females. […] Measuring Transdermal Water Loss (TEWL) at a skin site treated with ViaDerm in comparison to an adjacent untreated skin assessed formation of micro-channels. Safety of ViaDerm was evaluated by measuring irritation (erythema and edema) at the treatment site using a scale of zero to eight in accordance with Draize irritation index (Table 4). The response to irritation induced by ViaDern was assessed by a Cumulative Irritation Index (Table 5). […]

[2] = Pharmacokinetic study of transdermal drug delivery in rats (granisetron hydrogel patch with or without ViaDerm); format: in vivo, Male Sprague-Dawley rats; details: 3% granisetron HCl hydrogel patch
Protocol: Male Sprague-Dawley rats (400-500 g, Harlan Laboratories Ltd., Jerusalem, Israel) were anesthetized (5 mg/kg ketamine i.p.) and were placed dorsally. Anesthesia was maintained until the end of the transdermal treatment and during blood sampling by injections of 0.1 ml ketamine and Xyalzine (60-80 mg/ml) every 30-40 min. The abdominal skin was shaved and cleaned with isopropyl alcohol. After 30 minutes, the transepidermal water loss was measured in order to verify skin integrity and RF-micro-channeling took place on the abdominal skin of a test group. […] A granisetron patch, made of a solution of 3% granisetron HCl soaked in a hydrogel sheet of 1.4 cm , was then attached to the skin surface for 24 hr in special containers glued to the skin by silicon medical glue. Blood samples were taken from the heart into heparinized tubes. After centrifugation, plasma samples were kept at −20° C. until analyzed for drug levels by HPLC.
The procedure was basically performed according to Kudoh et al, J. Chromatography 660(1994) p. 205. Phosphate buffer (500 μl, pH 7, 67 mM) was mixed with one ml plasma. […] Aliquots (30 μl) from each sample were injected into the HPLC (1050 HP), equipped with a pre-packed C8 column (BDS-Hypersil, UK; C-8 100×3.0 mm, 3 μm), an auto-sampler, and a fluorescence detector (Model 1046A). Granisetron was detected by excitation at 305 nm and emission at 365 nm. […]

[3] = Clinical bioavailability study with granisetron patches and ViaDerm versus oral delivery (plasma levels, irritation); details: human, 1 tablet of 1 mg twice daily, reached only for short time periods, unsteady profile
Protocol: Granisetron HCl patches were applied on the skin of the upper arm and fore arm of healthy adult volunteers. […] Irritation was examined by monitoring edema and erythema as described in Example 6.
The experiment was conducted with six subjects, in a crossover manner. Each subject received four different treatments, i.e. various administration methods at various sites of patch application, with at least six days washout period between treatments.
ViaDerm performance was assessed by a study conducted with twenty healthy, adult volunteers, 10 males and 10 females. […] Each subject received 10 treatments, in a randomized manner such that a given treatment was applied to different subjects and/or in each subject at different sites. • Treatment protocol. The treatment sites were the inner arm and hand. […] Measuring Transdermal Water Loss (TEWL) at a skin site treated with ViaDerm in comparison to an adjacent untreated skin assessed formation of micro-channels. […]

CN1C2CCCC1CC(NC(=O)c1nn(C)c3ccccc13)C2 (centres unmarked) [granisetron, granisetron hydrochloride]
maximal concentration of granisetron in human plasma versus patch size ([1]; ViaDerm + patches of 2.8, 5.6 and 8.4 cm^2): linearly correlated with the size of patch
maximal plasma concentration ([1]; human, ViaDerm + granisetron patch (3% drug) covering 5.6 cm^2, applied 24 hours): above 4 ng/ml
granisetron plasma level (peak) ([2]; rats not treated with ViaDerm, peak at 2.5 hours after application): lower than 50 ng/ml
granisetron plasma level ([2]; rats pretreated with ViaDerm, reached during first 12 hours, maintained for additional 12 hours): above 200 ng/ml
plasma levels of granisetron [3]: above 4 ng/ml
